Measurements published in patent publication US7368578B2, “Five-membered heterocyclic compounds” (Takeda Pharmaceutical Company Limited, priority 2002, dated 2008).

Q: For `CCOC(=O)/C=C/c1cn(Cc2ccccc2)nc1OCc1ccc(OCc2nc(-c3ccco3)oc2C)c(OC)c1` [Example 259, ethyl (2E)-3-{1-benzyl-3-[(4-{[2-(2-furyl)-5-methyl-1,3-oxazol-4-yl]methoxy}-3-methoxybenzyl)oxy]-1H-pyrazol-4-yl}-2-propenoate], which melting point is on record?
A: 147 to 148 °C

Q: With `COc1cc(COc2nn(Cc3ccccc3)cc2/C=C/C(=O)O)ccc1OCc1nc(-c2ccco2)oc1C` [Example 260, (2E)-3-{1-benzyl-3-[(4-{[2-(2-furyl)-5-methyl-1,3-oxazol-4-yl]methoxy}-3-methoxybenzyl)oxy]-1H-pyrazol-4-yl}-2-propenoic acid] as the compound, how does the melting point read?
A: 175 to 176 °C

Q: Which melting point does the source give for `Cc1oc(-c2ccccc2)nc1COc1ccc(OCc2oc(-c3ccccc3)nc2/C=C/C(=O)O)cc1` [Example 261, (2E)-3-[5-({4-[(5-methyl-2-phenyl-1,3-oxazol-4-yl)methoxy]phenoxy}methyl)-2-phenyl-1,3-oxazol-4-yl]-2-propenoic acid] here?
A: 209 to 210 °C

Q: With `COc1cc(COc2nn(-c3ccccc3)cc2/C=C2\SC(=O)NC2=O)ccc1OCc1nc(-c2ccco2)oc1C` [Example 262, (5Z)-5-({3-[(4-{[2-(2-furyl)-5-methyl-1,3-oxazol-4-yl]methoxy}-3-methoxybenzyl)oxy]-1-phenyl-1H-pyrazol-4-yl}methylene)-1,3-thiazolidine-2,4-dione] as the compound, how does the melting point read?
A: 252 to 253 °C

Q: For `CCOC(=O)c1cnc(-c2ccccc2)nc1OCc1ccc(OCc2nc(-c3ccco3)oc2C)c(OC)c1` [Example 263, ethyl 4-[(4-{[2-(2-furyl)-5-methyl-1,3-oxazol-4-yl]methoxy}-3-methoxybenzyl)oxy]-2-phenylpyrimidine-5-carboxylate], which melting point is on record?
A: 142 to 143 °C

Q: For `CCOC(=O)c1cn(C)nc1OCc1ccc(OCc2nc(-c3ccccc3)oc2C)c(OC)c1` [Example 264, ethyl 3-{[3-methoxy-4-(5-methyl-2-phenyl-1,3-oxazol-4-ylmethoxy)benzyl]oxy}-1-methyl-1H-pyrazole-4-carboxylate], which melting point is on record?
A: 134 to 135 °C

Q: For `COc1cc(COc2nn(C)cc2C(=O)O)ccc1OCc1nc(-c2ccccc2)oc1C` [Example 265, 3-{[3-methoxy-4-(5-methyl-2-phenyl-1,3-oxazol-4-ylmethoxy)benzyl]oxy}-1-methyl-1H-pyrazole-4-carboxylic acid], which melting point is on record?
A: 169 to 170 °C

Q: For `COc1cc(COc2nn(C)cc2CO)ccc1OCc1nc(-c2ccccc2)oc1C` [Example 266, (3-{[3-methoxy-4-(5-methyl-2-phenyl-1,3-oxazol-4-ylmethoxy)benzyl]oxy}-1-methyl-1H-pyrazol-4-yl)methanol], which melting point is on record?
A: 108 to 109 °C

Q: For `COc1cc(COc2nn(C)cc2C=O)ccc1OCc1nc(-c2ccccc2)oc1C` [Example 267, 3-{[3-methoxy-4-(5-methyl-2-phenyl-1,3-oxazol-4-ylmethoxy)benzyl]oxy}-1-methyl-1H-pyrazole-4-carbaldehyde], which melting point is on record?
A: 123 to 124 °C

Q: With `COc1cc(COc2nn(C)cc2C(N)=O)ccc1OCc1nc(-c2ccccc2)oc1C` [Example 268, 3-{[3-methoxy-4-(5-methyl-2-phenyl-1,3-oxazol-4-ylmethoxy)benzyl]oxy}-1-methyl-1H-pyrazole-4-carboxamide] as the compound, how does the melting point read?
A: 168 to 169 °C

Q: For `COc1cc(COc2nn(C)cc2C(=O)N(C)OC)ccc1OCc1nc(-c2ccccc2)oc1C` [Example 269, N-methoxy-N-methyl-3-{[3-methoxy-4-(5-methyl-2-phenyl-1,3-oxazol-4-ylmethoxy)benzyl]oxy}-1-methyl-1H-pyrazole-4-carboxamide], which melting point is on record?
A: 138 to 139 °C

Q: For `COc1cc(COc2nn(C)cc2C(C)=O)ccc1OCc1nc(-c2ccccc2)oc1C` [Example 270, 1-(3-{[3-methoxy-4-(5-methyl-2-phenyl-1,3-oxazol-4-ylmethoxy)benzyl]oxy}-1-methyl-1H-pyrazol-4-yl)ethanone], which melting point is on record?
A: 170 to 171 °C

Q: With `COc1cc(COc2nn(C)cc2C(C)O)ccc1OCc1nc(-c2ccccc2)oc1C` (stereo not shown) [Example 271, 1-(3-{[3-methoxy-4-(5-methyl-2-phenyl-1,3-oxazol-4-ylmethoxy)benzyl]oxy}-1-methyl-1H-pyrazol-4-yl)ethanol] as the compound, how does the melting point read?
A: 94 to 95 °C

Q: For `CCOC(=O)c1cn(-c2ccccc2)nc1OCc1ccc(OCc2nc(-c3ccccc3)oc2C)c(OC)c1` [Example 272, ethyl 3-{[3-methoxy-4-(5-methyl-2-phenyl-1,3-oxazol-4-ylmethoxy)benzyl]oxy}-1-phenyl-1H-pyrazole-4-carboxylate], which melting point is on record?
A: 160 to 161 °C

Q: Which melting point does the source give for `COc1cc(COc2nn(-c3ccccc3)cc2C(=O)O)ccc1OCc1nc(-c2ccccc2)oc1C` [Example 273, 3-{[3-methoxy-4-(5-methyl-2-phenyl-1,3-oxazol-4-ylmethoxy)benzyl]oxy}-1-phenyl-1H-pyrazole-4-carboxylic acid] here?
A: 209 to 210 °C

Q: Which melting point does the source give for `COc1cc(COc2nn(-c3ccccc3)cc2C=O)ccc1OCc1nc(-c2ccccc2)oc1C` [Example 275, 3-{[3-methoxy-4-(5-methyl-2-phenyl-1,3-oxazol-4-ylmethoxy)benzyl]oxy}-1-phenyl-1H-pyrazole-4-carbaldehyde] here?
A: 142 to 143 °C

Q: With `COc1cc(COc2nn(-c3ccccc3)cc2C(N)=O)ccc1OCc1nc(-c2ccccc2)oc1C` [Example 276, 3-{[3-methoxy-4-(5-methyl-2-phenyl-1,3-oxazol-4-ylmethoxy)benzyl]oxy}-1-phenyl-1H-pyrazole-4-carboxamide] as the compound, how does the melting point read?
A: 190 to 191 °C

Q: For `COc1cc(CC(=O)Nc2nn(-c3ccccc3)cc2C=O)ccc1OCc1nc(-c2ccccc2)oc1C` [Example 277, N-(4-formyl-1-phenyl-1H-pyrazol-3-yl)-2-{3-methoxy-4-[(5-methyl-2-phenyl-1,3-oxazol-4-yl)methoxy]phenyl}acetamide], which melting point is on record?
A: 156 to 158 °C

Q: Which melting point does the source give for `COc1cc(COc2nn(-c3ccccc3)cc2C#N)ccc1OCc1nc(-c2ccccc2)oc1C` [Example 278, 3-{[3-methoxy-4-(5-methyl-2-phenyl-1,3-oxazol-4-ylmethoxy)benzyl]oxy}-1-phenyl-1H-pyrazole-4-carbonitrile] here?
A: 174 to 175 °C

Q: For `COc1cc(COc2nc(-c3ccccc3)ncc2C=O)ccc1OCc1nc(-c2ccco2)oc1C` [Example 280, 4-[(4-{[2-(2-furyl)-5-methyl-1,3-oxazol-4-yl]methoxy}-3-methoxybenzyl)oxy]-2-phenylpyrimidine-5-carbaldehyde], which melting point is on record?
A: 143 to 144 °C

Q: With `COc1cc(COc2nn(-c3ccccc3)cc2/C=C/C(=O)O)ccc1OCc1nc(-c2ccccc2)oc1C` [Example 281, (E)-3-(3-{[3-methoxy-4-(5-methyl-2-phenyl-1,3-oxazol-4-ylmethoxy)benzyl]oxy}-1-phenyl-1H-pyrazol-4-yl)-2-propenoic acid] as the compound, how does the melting point read?
A: 188 to 189 °C

Q: Which melting point does the source give for `COc1cc(COc2nn(-c3ccccc3)cc2CC#N)ccc1OCc1nc(-c2ccccc2)oc1C` [Example 283, (3-{[3-methoxy-4-(5-methyl-2-phenyl-1,3-oxazol-4-ylmethoxy)benzyl]oxy}-1-phenyl-1H-pyrazol-4-yl)acetonitrile] here?
A: 137 to 138 °C

Q: With `COc1cc(C(=O)Nc2nn(-c3ccccc3)cc2C=O)ccc1OCc1nc(-c2ccco2)oc1C` [Example 290, N-(4-formyl-1-phenyl-1H-pyrazol-3-yl)-4-{[2-(2-furyl)-5-methyl-1,3-oxazol-4-yl]methoxy}-3-methoxybenzamide] as the compound, how does the melting point read?
A: 212 to 213 °C

Q: Which melting point does the source give for `COC(=O)c1cc(OCc2ccc(OCc3nc(-c4ccccc4)oc3C)c(OC)c2)nn1-c1ccccc1` [Example 291, methyl 3-{[3-methoxy-4-(5-methyl-2-phenyl-1,3-oxazol-4-ylmethoxy)benzyl]oxy}-1-phenyl-1H-pyrazole-5-carboxylate] here?
A: 143 to 144 °C

Q: For `COc1cc(COc2cc(C(=O)O)n(-c3ccccc3)n2)ccc1OCc1nc(-c2ccccc2)oc1C` [Example 292, 3-{[3-methoxy-4-(5-methyl-2-phenyl-1,3-oxazol-4-ylmethoxy)benzyl]oxy}-1-phenyl-1H-pyrazole-5-carboxylic acid], which melting point is on record?
A: 192 to 193 °C

Q: Which melting point does the source give for `COc1cc(COc2cc(CO)n(-c3ccccc3)n2)ccc1OCc1nc(-c2ccccc2)oc1C` [Example 293, (3-{[3-methoxy-4-(5-methyl-2-phenyl-1,3-oxazol-4-ylmethoxy)benzyl]oxy}-1-phenyl-1H-pyrazol-5-yl)methanol] here?
A: 146 to 147 °C

Q: For `COc1cc(COc2cc(C=O)n(-c3ccccc3)n2)ccc1OCc1nc(-c2ccccc2)oc1C` [Example 294, 3-{[3-methoxy-4-(5-methyl-2-phenyl-1,3-oxazol-4-ylmethoxy)benzyl]oxy}-1-phenyl-1H-pyrazole-5-carbaldehyde], which melting point is on record?
A: 119 to 120 °C

Q: Which melting point does the source give for `CCOC(=O)/C=C/c1cn(-c2ccc(C(F)(F)F)cc2)nc1OCc1ccc(OCc2nc(-c3ccccc3)oc2C)c(OC)c1` [Example 295, ethyl (2E)-3-{3-({3-methoxy-4-[(5-methyl-2-phenyl-1,3-oxazol-4-yl)methoxy]benzyl}oxy)-1-[4-(trifluoromethyl)phenyl]-1H-pyrazol-4-yl}-2-propenoate] here?
A: 205 to 206 °C

Q: For `COc1cc(COc2nn(-c3ccc(C(F)(F)F)cc3)cc2/C=C/CO)ccc1OCc1nc(-c2ccccc2)oc1C` [Example 296, (2E)-3-{3-({3-methoxy-4-[(5-methyl-2-phenyl-1,3-oxazol-4-yl)methoxy]benzyl}oxy)-1-[4-(trifluoromethyl)phenyl]-1H-pyrazol-4-yl}-2-propen-1-ol], which melting point is on record?
A: 118 to 119 °C

Q: Which melting point does the source give for `COc1cc(COc2nn(-c3ccc(C(F)(F)F)cc3)cc2/C=C/C(=O)OCOC(=O)C(C)(C)C)ccc1OCc1nc(-c2ccccc2)oc1C` [Example 297, [(2,2-dimethylpropanoyl)oxy]methyl (2E)-3-{3-({3-methoxy-4-[(5-methyl-2-phenyl-1,3-oxazol-4-yl)methoxy]benzyl}oxy)-1-[4-(trifluoromethyl)phenyl]-1H-pyrazol-4-yl}-2-propenoate] here?
A: 131 to 132 °C

Q: With `COc1cc(COc2cc(C#N)n(-c3ccccc3)n2)ccc1OCc1nc(-c2ccccc2)oc1C` [Example 298, 3-{[3-methoxy-4-(5-methyl-2-phenyl-1,3-oxazol-4-ylmethoxy)benzyl]oxy}-1-phenyl-1H-pyrazole-5-carbonitrile] as the compound, how does the melting point read?
A: 120 to 121 °C
